In US10702706B2, “Apparatus, system, and method for generating photo-biologic minimum biofilm inhibitory concentration of infrared light” (NOMIR MEDICAL TECHNOLOGIES, INC., priority 2013, dated 2020):
Like-named read-outs stand apart in the source and are kept apart here.

Assays:
[1] = tested on: MRSA; conditions: of 38 patients, topical mupirocin; cited from earlier work
[2] = tested on: MRSA; experiment: In vitro biofilm formation by biofilm producing MRSA strains challenged with Mupirocin, with or without NIMELS infrared light; assay type: cell-based, methicillin resistant Staphylococcus aureus
Description: The applicant tested the effect in vitro against MRSA with the topical drug Mupirocin.
Accordingly, the PMBIC for MRSA challenged with Mupirocin was established using a straightforward testing protocol.

[3] = tested on: MRSA; conditions: cited from earlier work
[4] = tested on: S. aureus; conditions: cited from earlier work

C/C(=C\C(=O)OCCCCCCCCC(=O)O)C[C@@H]1OC[C@H](C[C@@H]2O[C@H]2[C@@H](C)[C@H](C)O)[C@@H](O)[C@H]1O [Mupirocin]
patients successfully eradicated of their MRSA [1]: 14 | prevention of biofilm formation ([2]; drug treatment alone, in vitro, biofilm producing MRSA strain (FIG. 9 left panel)): not effective in preventing biofilm formation | inhibition of biofilm production ([2]; sub-lethal NIMELS infrared light doses (870/930 nm, Table I) applied prior to drug, two different samples of MRSA (FIG. 9 right panel, FIG. 10)): did in fact inhibit biofilm production | MIC ([3]; 17 failed samples that were biofilm producing strains): ≤ 2 µg/mL | MIC ([3]; MRSA samples of the 14 patients with successful eradication): ≤ 1 µg/mL | effect on planktonic bacteria ([4]; applied 15 minutes after inoculation (representing planktonic bacteria)): reduced planktonic bacteria | effect on biofilm bacteria ([4]; applied 48 hours after inoculation (representing biofilm bacteria)): decreased efficacy on S. aureus biofilms
